Earlier results on 1 substance are cited in US8999893B2, “Stabilized oil-in-water emulsions including meptyl dinocap” (Dow AgroSciences LLC, priority 2008, dated 2015).

On to “2,6-dinitro-4-octylphenyl crotonates and 2,4-dinitro-6-octylphenyl crotonates in which ‘octyl’ is a mixture of 1-methylheptyl, 1-ethylhexyl and 1-propylpentyl groups [Meptyl Dinocap]”, for which the solubility in water is 0.151 µg/mL.
